Results reported in PubChem BioAssay AID248 (DTP/NCI, 2004).
“And” between values parts separate entries of the source, which are not always exact repeats. Equal values may be shown once. Toxic doses and inconclusive results are not listed.

Test system: L1210 leukemia ip in BDF1 mice, survival T/C
Assay: NCI In Vivo Anticancer Drug Screen. Data for tumor model L1210 Leukemia (intraperitoneal) in B6D2F1 (BDF1) mice
Conditions: higher = longer survival
Procedure, shortened: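 Tumor was transplanted into mice, which were then dosed with test compound or vehicle alone. Survival was recorded for each group, and the treated figure was expressed relative to the control figure.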

[1] = endpoint: mean survival time, dose: 20.0 mg/kg/injection, schedule: Q01DX Z (ip), vehicle: carboxymethylcellulose (CMC)
[2] = endpoint: mean survival time, dose: 200.0 mg/kg/injection, schedule: Q01DX001 (ip), vehicle: carboxymethylcellulose (CMC)
[3] = endpoint: mean survival time, dose: 100.0 mg/kg/injection, schedule: Q01DX001 (ip), vehicle: saline
[4] = endpoint: mean survival time, dose: 200.0 mg/kg/injection, schedule: Q01DX001 (ip), vehicle: saline
[5] = endpoint: mean survival time, dose: 400.0 mg/kg/injection, schedule: Q01DX001 (ip), vehicle: saline

`CCCCN(C)/N=N/c1nc[nH]c1C(N)=O` was tested, and the T/C (endpoint: mean survival time, dose: 4.0 mg/kg/injection, schedule: Q01DX009 (ip), vehicle: other) was 111 % of control, the T/C (endpoint: mean survival time, dose: 7.0 mg/kg/injection, schedule: Q01DX009 (ip), vehicle: other) was 111 % of control and the T/C (endpoint: mean survival time, dose: 12.25 mg/kg/injection, schedule: Q01DX009 (ip), vehicle: saline with Tween-80) was 117 % of control. The T/C (endpoint: mean survival time, dose: 17.6 mg/kg/injection, schedule: Q01DX009 (ip), vehicle: carboxymethylcellulose (CMC)) was 109 % of control, the T/C [1] was 124 % of control and the T/C (endpoint: mean survival time, dose: 26.0 mg/kg/injection, schedule: Q01DX009 (ip), vehicle: carboxymethylcellulose (CMC)) was 120 % of control. The T/C (endpoint: mean survival time, dose: 36.0 mg/kg/injection, schedule: Q01DX009 (ip), vehicle: other) was 168 % of control, the T/C (endpoint: mean survival time, dose: 36.7 mg/kg/injection, schedule: Q04DX003 (ip), vehicle: saline with Tween-80) was 117 % of control and the T/C (endpoint: mean survival time, dose: 40.0 mg/kg/injection, schedule: Q01DX009 (ip), vehicle: carboxymethylcellulose (CMC)) was 124 % of control. The T/C (endpoint: mean survival time, dose: 40.0 mg/kg/injection, schedule: Q01DX Z (ip), vehicle: carboxymethylcellulose (CMC)) was 164 % of control, the T/C (endpoint: mean survival time, dose: 49.0 mg/kg/injection, schedule: Q01DX009 (ip), vehicle: saline with Tween-80) was 153 % of control and the T/C (endpoint: mean survival time, dose: 53.0 mg/kg/injection, schedule: Q01DX001 (ip), vehicle: saline with Tween-80) was 107 % of control. The T/C (endpoint: mean survival time, dose: 60.0 mg/kg/injection, schedule: Q01DX009 (ip), vehicle: other) was 154 % of control, the T/C (endpoint: mean survival time, dose: 73.5 mg/kg/injection, schedule: Q04DX003 (ip), vehicle: saline with Tween-80) was 122 % of control and the T/C (endpoint: mean survival time, dose: 80.0 mg/kg/injection, schedule: Q01DX Z (ip), vehicle: carboxymethylcellulose (CMC)) was 158 % of control. The T/C (endpoint: mean survival time, dose: 88.0 mg/kg/injection, schedule: Q01DX001 (ip), vehicle: carboxymethylcellulose (CMC)) was 103 % of control, the T/C (endpoint: mean survival time, dose: 88.0 mg/kg/injection, schedule: Q01DX001 (ip), vehicle: other) was 121 % of control and the T/C (endpoint: mean survival time, dose: 100.0 mg/kg/injection, schedule: Q01DX001 (ip), vehicle: other) was 119 % of control. The T/C (endpoint: mean survival time, dose: 100.0 mg/kg/injection, schedule: Q01DX009 (ip), vehicle: other) was 90 % of control, the T/C (endpoint: mean survival time, dose: 106.0 mg/kg/injection, schedule: Q01DX001 (ip), vehicle: saline with Tween-80) was 119 % of control and the T/C (endpoint: mean survival time, dose: 120.0 mg/kg/injection, schedule: Q01DX Z (ip), vehicle: carboxymethylcellulose (CMC)) was 101 % of control. For the same compound, the T/C (endpoint: mean survival time, dose: 133.0 mg/kg/injection, schedule: Q01DX001 (ip), vehicle: carboxymethylcellulose (CMC)) was 103 % of control, the T/C (endpoint: mean survival time, dose: 147.0 mg/kg/injection, schedule: Q04DX003 (ip), vehicle: saline with Tween-80) was 153 % of control and the T/C (endpoint: mean survival time, dose: 160.0 mg/kg/injection, schedule: Q01DX009 (ip), vehicle: carboxymethylcellulose (CMC)) was 98 % of control. The T/C [2] was 106 % of control, the T/C (endpoint: mean survival time, dose: 400.0 mg/kg/injection, schedule: Q01DX001 (ip), vehicle: other) was 122 % of control and the T/C (endpoint: median survival time, dose: 10.0 mg/kg/injection, schedule: Q01DX009 (ip), vehicle: steriod suspending solution) was 116 % of control. For the same compound, the T/C (endpoint: median survival time, dose: 20.0 mg/kg/injection, schedule: Q01DX009 (ip), vehicle: steriod suspending solution) was 122 % of control, the T/C (endpoint: median survival time, dose: 40.0 mg/kg/injection, schedule: Q01DX009 (ip), vehicle: steriod suspending solution) was 150 % of control and 155 % of control and the T/C (endpoint: median survival time, dose: 80.0 mg/kg/injection, schedule: Q01DX009 (ip), vehicle: steriod suspending solution) was 155 % of control and 166 % of control. The T/C (endpoint: median survival time, dose: 160.0 mg/kg/injection, schedule: Q01DX009 (ip), vehicle: steriod suspending solution) was 100 % of control.
For `COc1cccc(/C2=C/CCCCCC2)c1`, the T/C (endpoint: mean survival time, dose: 50.0 mg/kg/injection, schedule: Q01DX009 (ip), vehicle: acetone) was 95 % of control, the T/C (endpoint: mean survival time, dose: 100.0 mg/kg/injection, schedule: Q01DX009 (ip), vehicle: acetone) was 107 % of control and the T/C (endpoint: mean survival time, dose: 100.0 mg/kg/injection, schedule: Q04DX003 (ip), vehicle: acetone) was 100 % of control. For the same compound, the T/C (endpoint: mean survival time, dose: 200.0 mg/kg/injection, schedule: Q01DX009 (ip), vehicle: acetone) was 93 % of control, the T/C (endpoint: mean survival time, dose: 200.0 mg/kg/injection, schedule: Q04DX003 (ip), vehicle: acetone) was 105 % of control and the T/C (endpoint: mean survival time, dose: 400.0 mg/kg/injection, schedule: Q04DX003 (ip), vehicle: acetone) was 91 % of control.
In the case of `COc1ccc(/C=C\C(=O)OCCCCOC(=O)/C=C/c2ccc(OC)cc2)cc1`, the T/C (endpoint: mean survival time, dose: 50.0 mg/kg/injection, schedule: Q01DX001 (ip), vehicle: saline) is reported as 95 % of control, the T/C [3] is reported as 95 % of control and the T/C [4] is reported as 95 % of control. For the same compound, the T/C [5] was 95 % of control.
For `CC1CN1P(=O)(N1CCCCC1)N1CC1C` (centres undefined), the T/C (endpoint: mean survival time, dose: 11.0 mg/kg/injection, schedule: Q01DX Z (ip), vehicle: carboxymethylcellulose (CMC)) was 97 % of control, the T/C (endpoint: mean survival time, dose: 11.0 mg/kg/injection, schedule: Q01DX Z (ip), vehicle: saline) was 109 % of control and the T/C (endpoint: mean survival time, dose: 13.0 mg/kg/injection, schedule: Q01DX Z (ip), vehicle: carboxymethylcellulose (CMC)) was 102 % of control. For the same compound, the T/C (endpoint: mean survival time, dose: 17.0 mg/kg/injection, schedule: Q01DX Z (ip), vehicle: carboxymethylcellulose (CMC)) was 119 % of control, the T/C (endpoint: mean survival time, dose: 17.0 mg/kg/injection, schedule: Q01DX Z (ip), vehicle: saline) was 116 % of control and the T/C [1] was 102 % of control. The T/C (endpoint: mean survival time, dose: 25.0 mg/kg/injection, schedule: Q01DX Z (ip), vehicle: carboxymethylcellulose (CMC)) was 104 % of control and 116 % of control, the T/C (endpoint: mean survival time, dose: 25.0 mg/kg/injection, schedule: Q01DX Z (ip), vehicle: saline) was 104 % of control and the T/C (endpoint: mean survival time, dose: 30.0 mg/kg/injection, schedule: Q01DX Z (ip), vehicle: carboxymethylcellulose (CMC)) was 105 % of control. For the same compound, the T/C (endpoint: mean survival time, dose: 38.0 mg/kg/injection, schedule: Q01DX Z (ip), vehicle: carboxymethylcellulose (CMC)) was 115 % of control and 116 % of control, the T/C (endpoint: mean survival time, dose: 45.0 mg/kg/injection, schedule: Q01DX Z (ip), vehicle: carboxymethylcellulose (CMC)) was 100 % of control and 115 % of control and the T/C (endpoint: mean survival time, dose: 57.0 mg/kg/injection, schedule: Q01DX Z (ip), vehicle: saline) was 118 % of control. The T/C (endpoint: mean survival time, dose: 85.0 mg/kg/injection, schedule: Q01DX Z (ip), vehicle: carboxymethylcellulose (CMC)) was 109 % of control and the T/C (endpoint: mean survival time, dose: 86.0 mg/kg/injection, schedule: Q01DX Z (ip), vehicle: saline) was 102 % of control and 113 % of control.
For `CC(=O)OC1CC(C)(C)CC(OC(C)=O)C1(C)C` (centres undefined), the T/C (endpoint: mean survival time, dose: 75.0 mg/kg/injection, schedule: Q01DX001 (ip), vehicle: saline) was 100 % of control and the T/C (endpoint: mean survival time, dose: 150.0 mg/kg/injection, schedule: Q01DX001 (ip), vehicle: saline) was 111 % of control.
`O=C(O)c1c(F)ccc([N+](=O)[O-])c1F` was tested, and the T/C (endpoint: mean survival time, dose: 100.0 mg/kg/injection, schedule: Q04DX002 (ip), vehicle: saline) was 108 % of control and the T/C (endpoint: mean survival time, dose: 200.0 mg/kg/injection, schedule: Q04DX002 (ip), vehicle: saline) was 103 % of control.
With `NC(=O)NNC1=CC(=O)CCO1` the T/C [3] was 107 % of control, the T/C [4] was 106 % of control and the T/C [5] was 104 % of control.
`CCOC(CN1CCOCC1)c1ccccc1` (centres undefined) was tested, and the T/C (endpoint: mean survival time, dose: 50.0 mg/kg/injection, schedule: Q01DX001 (ip), vehicle: carboxymethylcellulose (CMC)) was 100 % of control, the T/C (endpoint: mean survival time, dose: 50.0 mg/kg/injection, schedule: Q01DX009 (ip), vehicle: carboxymethylcellulose (CMC)) was 93 % of control and 92 % of control and the T/C (endpoint: mean survival time, dose: 50.0 mg/kg/injection, schedule: Q04DX003 (ip), vehicle: carboxymethylcellulose (CMC)) was 102 % of control. For the same compound, the T/C (endpoint: mean survival time, dose: 100.0 mg/kg/injection, schedule: Q01DX001 (ip), vehicle: carboxymethylcellulose (CMC)) was 99 % of control, the T/C (endpoint: mean survival time, dose: 100.0 mg/kg/injection, schedule: Q01DX009 (ip), vehicle: carboxymethylcellulose (CMC)) was 109 % of control and 91 % of control and the T/C (endpoint: mean survival time, dose: 100.0 mg/kg/injection, schedule: Q04DX002 (ip), vehicle: carboxymethylcellulose (CMC)) was 103 % of control and 105 % of control. For the same compound, the T/C (endpoint: mean survival time, dose: 100.0 mg/kg/injection, schedule: Q04DX003 (ip), vehicle: carboxymethylcellulose (CMC)) was 107 % of control, the T/C [2] was 100 % of control and the T/C (endpoint: mean survival time, dose: 200.0 mg/kg/injection, schedule: Q01DX009 (ip), vehicle: carboxymethylcellulose (CMC)) was 106 % of control and 88 % of control. The T/C (endpoint: mean survival time, dose: 200.0 mg/kg/injection, schedule: Q04DX002 (ip), vehicle: carboxymethylcellulose (CMC)) was 106 % of control and 113 % of control and the T/C (endpoint: mean survival time, dose: 200.0 mg/kg/injection, schedule: Q04DX003 (ip), vehicle: carboxymethylcellulose (CMC)) was 104 % of control.
In the case of `O=C(NCCCl)NC1CCCCC1`, the T/C (endpoint: mean survival time, dose: 100.0 mg/kg/injection, schedule: Q01DX001 (ip), vehicle: Klucel (hydroxypropylcellulose) (HPC)) is reported as 88 % of control, the T/C (endpoint: mean survival time, dose: 200.0 mg/kg/injection, schedule: Q01DX001 (ip), vehicle: Klucel (hydroxypropylcellulose) (HPC)) is reported as 89 % of control and the T/C (endpoint: mean survival time, dose: 400.0 mg/kg/injection, schedule: Q01DX001 (ip), vehicle: Klucel (hydroxypropylcellulose) (HPC)) is reported as 100 % of control.
`COc1cc([N+](=O)[O-])ccc1NC(=O)Oc1ccc(-c2ccccc2)cc1Cl` was tested, and the T/C (endpoint: mean survival time, dose: 100.0 mg/kg/injection, schedule: Q01DX009 (ip), vehicle: Klucel (hydroxypropylcellulose) (HPC)) was 93 % of control, the T/C (endpoint: mean survival time, dose: 200.0 mg/kg/injection, schedule: Q01DX009 (ip), vehicle: Klucel (hydroxypropylcellulose) (HPC)) was 96 % of control and the T/C (endpoint: mean survival time, dose: 400.0 mg/kg/injection, schedule: Q01DX009 (ip), vehicle: Klucel (hydroxypropylcellulose) (HPC)) was 95 % of control.
